In assay [1] the test system is Apt2 (DNA, aptamer) ACTTCAGTGAGTTGTCCCACGGTCGGCGAGTCGGTGGTAG
The assay is described as follows: SPR (Biacore T200), single concentration. Conditions: 100 mM Na+, 5 mM K+, 2 mM Mg2+, 1 mM Ca2+ (sample diluent Buf1), diluent Buf1 pH 7.4, SA-coated CM5 chip. (In SPR one partner is held on a chip, and binding of the other changes the refractive index at the surface.)

Assay [2] has the same test system. The assay is described as follows: SPR (Biacore T200), steady-state fit. Conditions: 100 mM Na+, 5 mM K+, 2 mM Mg2+, 1 mM Ca2+ (sample diluent Buf1); running buffer PBS; diluent Buf1, 20 mM Tris-HCl pH 7.4; SA-coated CM5 chip.
[3] abbreviates: 6.4 μM tested, running buffer PBS not restated.

Binding and KD data for four compounds are collected here from paper PMC12650355 (2025).

The KD is a measure of binding affinity in units of concentration. A lower KD goes with tighter binding.

Each structure is given as a SMILES string.

Consider `CO/N=C(\C(=O)N[C@@H]1C(=O)N2C(C(=O)O)=C(COC(N)=O)CS[C@H]12)c1ccco1`, for which the binding result in assay [1] (6.4 μM tested (printed CN, CXM)) is “no”.

Turning to `CS(=O)(=O)c1ccc([C@@H](O)[C@@H](CF)NC(=O)C(Cl)Cl)cc1`, in assay [1] (setting [3]), the binding entry was “no”.

Turning to `CS(=O)(=O)c1ccc([C@@H](O)[C@@H](CO)NC(=O)C(Cl)Cl)cc1`, the binding entry in assay [1] (setting [3]) was “no”.

On to `O=C(N[C@H](CO)[C@H](O)c1ccc([N+](=O)[O-])cc1)C(Cl)Cl`, for which the KD in assay [2] was found to be 141 nM.
